# Assay results from paper PMC9127750, “Structure-based design of CDC42 effector interaction inhibitors for the treatment of cancer” (Cell reports, 2022).
# Where “and” joins values, the source holds several entries; their conditions need not be identical. Identical values can stand only once.
# Tested on: WM3248 melanoma cells, 486 antibodies
# Test: Reverse phase protein arrays (RPPA);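 on CA9.R.C RPPA level: ratio of treated to vehicle (0 µM) normalized linear protein signal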;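 on CD171.M.V RPPA level: ratio of treated to vehicle (0 µM) normalized linear protein signal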;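 on CREB pS133.R.C RPPA level: ratio of treated to vehicle (0 µM) normalized linear protein signal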;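 on Cyclin.B1.R.V RPPA level: ratio of treated to vehicle (0 µM) normalized linear protein signal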
# Assay type: cell-based, Human
# Settings: 20 uM
# Description: Pellets were snap frozen in liquid nitrogen and shipped to MD Anderson Cancer Center core RPPA facility for RPPA analysis (Table S5). Three biological replicates for each sample were generated.
# Nomenclatures on the RPPA heatmaps: name_of_antibody.species_of_antibody.status_of_antibody. V - antibody validated; C - validation of antibody in progress; Q - antibody nonspecific; E – under evaluation; antibodies raised in M - mouse, G - goat, R - rabbit, or T - rat.
smiles,measurement,setting,value
"CN(C)c1cccc(Nc2cc(-c3ccccc3)nc(C3CCNCC3)n2)c1 [ARN22089, N1,N1-dimethyl-N3-(6-phenyl-2-(piperidin-4-yl)pyrimidin-4-yl)benzene-1,3-diamine]",RPPA SGK1.R.V Average,average of 3,0.842
same,RPPA SGK3.R.V Average,average of 3,1.023
same,RPPA SHP2.R.V Average,average of 3,1.005
same,RPPA SHP.2_pY542.R.C Average,average of 3,1.076
same,RPPA SIRPαR.V Average,average of 3,0.981
same,RPPA SLC1A5.R.C Average,average of 3,1.080
same,RPPA SOD1.M.V Average,average of 3,0.967
same,RPPA SOD2.R.V Average,average of 3,1.111
same,RPPA SOX7.R.V Average,average of 3,1.078
same,RPPA STING.R.V Average,average of 3,0.964
same,RPPA Shc_pY317.R.C Average,average of 3,1.012
same,RPPA Slfn11.G.C Average,average of 3,0.995
same,RPPA Smac.M.Q Average,average of 3,0.977
same,RPPA Smad1.R.V Average,average of 3,1.081
same,RPPA Smad3.R.V Average,average of 3,1.101
same,RPPA Smad4.R.V Average,average of 3,1.112
same,RPPA Snail.M.Q Average,average of 3,0.754
same,RPPA Sox2.R.V Average,average of 3,1.223
same,RPPA Sox17.R.V Average,average of 3,0.982
same,RPPA Src.M.V Average,average of 3,0.962
same,RPPA Src_pY416.R.V Average,average of 3,1.034
same,RPPA Src_pY527.R.V Average,average of 3,1.187
same,RPPA Stat3.R.C Average,average of 3,0.979
same,RPPA Stat3_pY705.R.C Average,average of 3,1.281
same,RPPA Stat5a.R.V Average,average of 3,1.185
same,RPPA Stathmin.1.R.V Average,average of 3,0.924
same,RPPA Syk.M.V Average,average of 3,0.975
same,RPPA TAZ.R.V Average,average of 3,0.719
same,RPPA TEAD.R.C Average,average of 3,0.998
same,RPPA TFAM.R.V Average,average of 3,0.978
same,RPPA TFRC.R.V Average,average of 3,0.934
same,RPPA TRAP1.M.V Average,average of 3,0.944
same,RPPA TRIM24.R.C Average,average of 3,1.085
same,RPPA TRIM25.R.C Average,average of 3,0.893
same,RPPA TRIP13.R.V Average,average of 3,0.978
same,RPPA Transglutaminase.M.V Average,average of 3,1.323
same,"RPPA signal, antibody TSC1.R.C, Average",average of 3 replicates,0.906
same,"RPPA signal, antibody TTF1.R.V, Average",average of 3 replicates,1.016
same,"RPPA signal, antibody TUFM.R.V, Average",average of 3 replicates,1.103
same,"RPPA signal, antibody Tuberin_pT1462.R.V, Average",average of 3 replicates,1.116
same,"RPPA signal, antibody Twist.M.C, Average",average of 3 replicates,0.954
same,"RPPA signal, antibody Tyro3.R.V, Average",average of 3 replicates,1.154
same,"RPPA signal, antibody U.Histone.H2B.R.C, Average",average of 3 replicates,2.471
same,"RPPA signal, antibody UBAC1.R.V, Average",average of 3 replicates,1.016
same,"RPPA signal, antibody UGT1A.M.V, Average",average of 3 replicates,1.000
same,"RPPA signal, antibody ULK1_pS757.R.C, Average",average of 3 replicates,0.908
same,"RPPA signal, antibody UQCRC2.M.C, Average",average of 3 replicates,0.887
same,"RPPA signal, antibody VASP.R.V, Average",average of 3 replicates,0.952
same,"RPPA signal, antibody VAV1.R.C, Average",average of 3 replicates,1.024
same,"RPPA signal, antibody VEGFR.2.R.V, Average",average of 3 replicates,0.928
same,"RPPA signal, antibody VEGFR.2_pY1175.R.C, Average",average of 3 replicates,1.063
same,"RPPA signal, antibody VHL.EPPK1.M.C, Average",average of 3 replicates,1.020
same,"RPPA signal, antibody VHL.R.C, Average",average of 3 replicates,0.956
same,"RPPA signal, antibody Vinculin.M.V, Average",average of 3 replicates,0.913
same,"RPPA signal, antibody WIPI2.R.C, Average",average of 3 replicates,1.142
same,"RPPA signal, antibody WTAP.R.V, Average",average of 3 replicates,1.197
same,"RPPA signal, antibody Wee1.R.C, Average",average of 3 replicates,1.011
same,"RPPA signal, antibody XBP.1.G.C, Average",average of 3 replicates,0.972
same,"RPPA signal, antibody XIAP.R.C, Average",average of 3 replicates,0.993
same,"RPPA signal, antibody XPA.M.V, Average",average of 3 replicates,0.982
same,"RPPA signal, antibody XPF.R.C, Average",average of 3 replicates,0.952
same,"RPPA signal, antibody XRCC1.R.C, Average",average of 3 replicates,1.024
same,"RPPA signal, antibody YAP.R.C, Average",average of 3 replicates,0.993
same,"RPPA signal, antibody YB1_pS102.R.V, Average",average of 3 replicates,1.015
same,"RPPA signal, antibody YES1.R.V, Average",average of 3 replicates,0.974
same,"RPPA signal, antibody YTHDF2.R.V, Average",average of 3 replicates,1.022
same,"RPPA signal, antibody YTHDF3.R.C, Average",average of 3 replicates,0.957
same,"RPPA signal, antibody ZAP.70.R.V, Average",average of 3 replicates,0.929
same,"RPPA signal, antibody ZEB1.R.V, Average",average of 3 replicates,1.026
same,"RPPA signal, antibody TSC1.R.C",individual replicates,0.941 and 0.818 and 0.960
same,"RPPA signal, antibody TTF1.R.V",individual replicates,1.015 and 0.923 and 1.110
same,"RPPA signal, antibody TUFM.R.V",individual replicates,1.758 and 0.731 and 0.819
same,"RPPA signal, antibody Tuberin.R.V",individual replicates,0.781 and 1.344 and 1.402
same,"RPPA signal, antibody Tuberin_pT1462.R.V",individual replicates,0.961 and 1.362 and 1.023
same,"RPPA signal, antibody Twist.M.C",individual replicates,0.937 and 0.987
same,"RPPA signal, antibody Tyro3.R.V",individual replicates,1.400 and 1.084 and 0.979
same,"RPPA signal, antibody U.Histone.H2B.R.C",individual replicates,5.570 and 0.775
same,"RPPA signal, antibody UBAC1.R.V",individual replicates,1.007 and 0.954
same,"RPPA signal, antibody UBQLN4.M.C",individual replicates,1.008 and 0.906 and 0.933
same,"RPPA signal, antibody UGT1A.M.V",individual replicates,0.958 and 1.050 and 0.991
same,"RPPA signal, antibody ULK1_pS757.R.C",individual replicates,0.848 and 1.011
same,"RPPA signal, antibody UQCRC2.M.C",individual replicates,0.993 and 0.916 and 0.753
same,"RPPA signal, antibody UVRAG.R.C",individual replicates,0.916 and 1.111 and 1.110
same,"RPPA signal, antibody VASP.R.V",individual replicates,1.010 and 0.872 and 0.975
same,"RPPA signal, antibody VAV1.R.C",individual replicates,0.958 and 1.058 and 1.057
same,"RPPA signal, antibody VEGFR.2.R.V",individual replicates,0.883 and 0.823 and 1.079
same,"RPPA signal, antibody VEGFR.2_pY1175.R.C",individual replicates,1.118 and 0.976
same,"RPPA signal, antibody VHL.EPPK1.M.C",individual replicates,1.005 and 1.203 and 0.853
same,"RPPA signal, antibody VHL.R.C",individual replicates,0.953 and 0.849
same,"RPPA signal, antibody Vinculin.M.V",individual replicates,0.888 and 0.854 and 0.998
same,"RPPA signal, antibody WIPI1.R.C",individual replicates,1.160 and 1.238 and 1.145
same,"RPPA signal, antibody WIPI2.R.C",individual replicates,1.015 and 1.158 and 1.252
same,"RPPA signal, antibody WTAP.R.V",individual replicates,1.419 and 1.174 and 0.998
same,"RPPA signal, antibody Wee1.R.C",individual replicates,0.776 and 1.131 and 1.126
same,"RPPA signal, antibody Wee1_pS642.R.C",individual replicates,0.845 and 1.173 and 1.116
same,"RPPA signal, antibody XBP.1.G.C",individual replicates,0.989 and 0.988
same,"RPPA signal, antibody XIAP.R.C",individual replicates,0.944 and 0.910 and 1.125
same,"RPPA signal, antibody XPA.M.V",individual replicates,0.967 and 1.026
same,"RPPA signal, antibody XPF.R.C",individual replicates,0.937 and 0.898 and 1.023
same,"RPPA signal, antibody XRCC1.R.C",individual replicates,1.008 and 1.026
same,"RPPA signal, antibody YAP.R.C",individual replicates,1.004 and 1.030 and 0.945
same,"RPPA signal, antibody YAP_pS127.R.V",individual replicates,1.152 and 0.978 and 0.976
same,"RPPA signal, antibody YB1_pS102.R.V",individual replicates,1.029 and 0.913 and 1.102
same,"RPPA signal, antibody YES1.R.V",individual replicates,1.048 and 0.896 and 0.978
same,"RPPA signal, antibody YTHDF2.R.V",individual replicates,1.166 and 0.983 and 0.917
same,"RPPA signal, antibody YTHDF3.R.C",individual replicates,0.960 and 0.870
same,"RPPA signal, antibody ZAP.70.R.V",individual replicates,0.979 and 0.883 and 0.925
same,"RPPA signal, antibody ZEB1.R.V",individual replicates,1.076 and 1.001 (2×)
same,C.Raf.R.C RPPA level,replicates,0.876 and 1.165 and 1.143
same,C.Raf_pS338.R.V RPPA level,replicates,0.991 and 1.112 and 1.160
same,CA9.R.C RPPA level,replicates,0.919 and 0.861 and 0.996
same,CD2.M.C RPPA level,replicates,0.941 and 0.909 and 0.958
same,CD4.R.V RPPA level,replicates,0.942 and 0.993 and 1.083
same,CD5.M.C RPPA level,replicates,0.997 and 0.956 and 0.945
same,CD20.R.C RPPA level,replicates,1.250 and 0.955
same,CD26.R.V RPPA level,replicates,1.005 and 0.958 and 1.161
same,CD29.M.V RPPA level,replicates,0.953 and 0.914 and 0.985
same,CD31.M.V RPPA level,replicates,0.978 and 0.997 and 0.990
same,CD38.R.C RPPA level,replicates,0.979 and 1.221 and 1.194
same,CD44.R.C RPPA level,replicates,1.115 and 0.966
same,CD45.M.V RPPA level,replicates,0.921 and 0.967 and 0.985
same,CD49b.M.V RPPA level,replicates,0.971 and 0.954
same,CD68.M.C RPPA level,replicates,1.009 and 1.025 and 0.962
same,CD74.M.V RPPA level,replicates,1.011 and 1.026 and 0.956
same,CD134.R.V RPPA level,replicates,0.989 and 0.997 and 0.996
same,CD171.M.V RPPA level,replicates,0.680 and 0.817 and 0.790
same,CDK1_pT14.R.C RPPA level,replicates,1.334 and 0.655
same,CDK9.R.V RPPA level,replicates,1.161 and 0.839 and 0.893
same,CDKN2A.R.C RPPA level,replicates,0.966 and 1.130 and 0.976
same,CDT1.R.V RPPA level,replicates,0.905 and 0.934
same,CENP.A.R.V RPPA level,replicates,2.651 and 0.953
same,CHD1L.R.V RPPA level,replicates,0.935 and 0.987 and 0.941
same,CIITA.R.C RPPA level,replicates,1.013 and 1.020 and 0.972
same,COG3.R.V RPPA level,replicates,0.941 and 1.097 and 1.256
same,CRABP1.R.C RPPA level,replicates,1.019 and 1.064 and 0.991
same,CRABP2.R.V RPPA level,replicates,0.965 and 1.085 and 0.882
same,CREB_pS133.R.C RPPA level,replicates,0.965 and 1.585 and 1.260
same,CSK.R.C RPPA level,replicates,0.871 and 1.022
same,Calnexin.R.V RPPA level,replicates,0.849 and 0.983
same,Caspase.3.cleaved.R.C RPPA level,replicates,0.952 and 1.128 and 1.028
same,Caspase.7.cleaved..R.C RPPA level,replicates,1.007 and 0.873 and 1.064
same,Caspase.8.M.Q RPPA level,replicates,1.015 and 0.943 and 0.830
same,Caspase.8.cleaved.R.C RPPA level,replicates,0.945
same,Caveolin.1.R.V RPPA level,replicates,0.593 and 0.774 and 1.160
same,Cdc6.R.V RPPA level,replicates,1.141 and 0.773 and 0.673
same,Cdc42.R.C RPPA level,replicates,0.928 and 1.027 and 1.096
same,Chk1.M.C RPPA level,replicates,0.847 and 0.982
same,Chk1_pS296.R.V RPPA level,replicates,0.942 and 1.163 and 1.155
same,Chk1_pS345.R.C RPPA level,replicates,1.030 and 1.165 and 1.125
same,Chk2.M.V RPPA level,replicates,0.868 and 0.876 and 0.992
same,Chk2_pT68.R.C RPPA level,replicates,0.919 and 1.631 and 1.172
same,Claudin.7.R.V RPPA level,replicates,0.970 and 1.594 and 0.965
same,Collagen.VI.R.V RPPA level,replicates,1.150 and 0.775 and 0.928
same,Complex.II.Subunit.M.V RPPA level,replicates,0.977 and 0.871 and 0.988
same,Connexin.43.R.C RPPA level,replicates,0.961 and 1.203 and 1.101
same,Coup.TFII.R.C RPPA level,replicates,0.854 and 0.942 and 1.027
same,Cox2.R.C RPPA level,replicates,1.254 and 0.972 and 1.574
same,Cox.IV.R.V RPPA level,replicates,1.125 and 0.898 and 0.967
same,Creb.R.C RPPA level,replicates,1.005 and 1.024 and 1.173
same,CtIP.R.V RPPA level,replicates,0.804 and 0.988 and 1.058
same,Cyclin.B1.R.V RPPA level,replicates,1.623 and 0.503 and 1.275
same,Cyclin.D1.R.C RPPA level,replicates,1.131 and 1.034 and 0.955
